Reference: patent publication US5300279A, “Organic amine phosphonic acid complexes for the treatment of calcific tumors” (The Dow Chemical Company, priority 1990, dated 1994)

Key:
[1] = localization of radioactivity (composition judged unacceptable); assay type: in vivo; conditions: Sm-153; species not stated
[2] = biolocalization of the radionuclide in rats (tissue distribution after tail vein injection); assay type: in vivo, male Sprague Dawley rats; conditions: Lu-177 (Ex. 14, 15; 5 rats) or Ho-166 (Ex. 16; 3 rats), two hour
Protocol: Studies to determine the qualitative biodistribution of the various radionuclides were conducted by injecting the compositions into rats and obtaining the gamma ray images of the entire animal at various times up to two hours after injection.
Laboratory rats were injected with the above complex (50-100 μl) via the tail vein. After 2 hours, the animals were sacrificed by cervical dislocation and organs and tissues removed. Samples were counted with a NaI counter to determine the biolocalization of the radionuclide.

[3] = test system: tumor; conditions: female Irish Wolfhound, possible osteosarcoma; 0.97 mCi/kg
Protocol: An English Setter with a tumor in his pelvis was injected with approximately 19 mCi of a composition containing Sm-153-EDTMP. After 2 hours, the dog was imaged using a scintillation camera.
An Irish setter with undifferentiated sarcoma metastatic to bone was treated with 16 mCi (0.57 mCi/kg) of a composition containing Sm-153-EDTMP. […] After approximately 3 months, when signs of lameness began to reappear, the dog was given a second treatment of 15 mCi (0.49 mCi/kg), of a composition containing Sm-153-EDTMP.
A female Irish Wolfhound with a possible osteosarcoma on the left distal radius was injected with a composition containing ^166 Ho-EDTMP (0.97 mCi/kg).

Structure (SMILES) | localization of radioactivity in the liver [1] | % Dose in Blood [2] | % Dose in Kidneys [2] | % Dose in Liver [2] | % Dose in Muscle [2] | % Dose in Skeleton [2] | Bone/Blood ([2]; ratio of percent dose per gram) | Bone/Muscle ([2]; ratio of percent dose per gram) | additional survival [3] | survival compared with usual expected life [3]
O=P(O)(O)CN(CCO)CP(=O)(O)O.[153Sm+3] | a significant portion of the radioactivity localized in the liver | – | – | – | – | – | – | – | – | –
O=P(O)(O)CN(CCN(CP(=O)(O)O)CP(=O)(O)O)CP(=O)(O)O.[166Ho+3] [Example 16] | – | 0.03 % Dose | 0.26 % Dose | 0.05 % Dose | 0.10 % Dose | 48 % Dose | 1114 | 2292 | 9 months | greater than the usual expected life of a dog with osteosarcoma
